Values of other authors as cited in US20050003028A1, “Composition for protection and regeneration of structure and function of the liver” (priority 2001, published 2005).

Settings: in vivo

## Sylimarin
  re-absorbtion into digestive system: weak
